Earlier results in US20240043473A1, “NOOTROPIC PEPTIDES FOR TREATING LYSOSOMAL STORAGE DISEASES” (Phoenix Nest Inc., priority 2021, published 2024).

Tested on: BDNF and its signaling receptor TrkB in the hippocampus
Conditions: in animals; cited from earlier work

Semax: synthetic analogue of ACTH(4-10), consisting of ACTH(4-7) and the C-terminal tripeptide Pro-Gly-Pro; MEHFPGP (SEQ ID NO: 1)
levels and expression of BDNF and its signaling receptor TrkB in the hippocampus: rapidly elevates the levels and expression | serotonergic and dopaminergic brain systems: rapidly activates
